Laboratory results as given in ChEMBL document CHEMBL6177967, “Semisynthesis and biological evaluation of 17-hydroxybrevianamide N derivatives as anti-inflammatory agents by mediating NF-κB and MAPK signaling pathways” (Eur J Med Chem, 2025).
pIC50: −log10 of the molar value. The source made the active and inactive calls. No cut-off for these calls is given here.

Columns and labels:
[1] = tested on: RAW264.7; assay: Cytotoxicity against mouse RAW264.7 cells assessed as inhibition of cell growth at 2 uM incubated for 24 hrs by MTT assay; assay type: toxicity, cell-based; settings: raw264.7, 24 h
[2] = tested on: RAW264.7; assay: Anti-inflammatory activity in LPS-induced mouse RAW264.7 cells assessed as inhibition of NO levels incubated for 24 hrs; assay type: functional, cell-based; settings: RAW264.7, 24 h
[3] = tested on: RAW264.7; assay: Anti-inflammatory activity in LPS-induced mouse RAW264.7 cells assessed as inhibition of TNF-alpha level at 2 uM incubated for 24 hrs by ELISA relative to control; assay type: functional
[4] = tested on: RAW264.7; assay: Anti-inflammatory activity in LPS-induced mouse RAW264.7 cells assessed as inhibition of IL-6 level at 2 uM incubated for 24 hrs by ELISA relative to control; assay type: functional
[5] = tested on: RAW264.7; assay: Anti-inflammatory activity in LPS-induced mouse RAW264.7 cells assessed as inhibition of IL-1beta level at 2 uM incubated for 24 hrs by ELISA relative to control; assay type: functional
[6] = tested on: RAW264.7; assay: Cytotoxicity against mouse RAW264.7 cells assessed as inhibition of cell growth at 10 uM incubated for 24 hrs by MTT assay; assay type: toxicity, cell-based; settings: raw264.7, 24 h
[7] = tested on: RAW264.7; assay: Anti-inflammatory activity in LPS-induced mouse RAW264.7 cells assessed as inhibition of NO levels at 2 uM incubated for 24 hrs; assay type: functional, cell-based
[8] = tested on: RAW264.7; assay: Cytotoxicity against mouse RAW264.7 cells assessed as inhibition of cell growth at 50 uM incubated for 24 hrs by MTT assay; assay type: toxicity, cell-based; settings: raw264.7, 24 h
[9] = tested on: RAW264.7; assay: Anti-inflammatory activity in LPS-induced mouse RAW264.7 cells assessed as inhibition of TNF-alpha level at 20 uM incubated for 24 hrs by ELISA relative to control; assay type: functional
[10] = tested on: RAW264.7; assay: Anti-inflammatory activity in LPS-induced mouse RAW264.7 cells assessed as inhibition of IL-6 level at 20 uM incubated for 24 hrs by ELISA relative to control; assay type: functional
[11] = tested on: RAW264.7; assay: Anti-inflammatory activity in LPS-induced mouse RAW264.7 cells assessed as inhibition of IL-1beta level at 20 uM incubated for 24 hrs by ELISA relative to control; assay type: functional

For CN1C(=O)c2nc3ccccc3c(=O)n2[C@H](Cc2ccccc2OCc2ccccc2Cl)C1=O, the Activity [1] was “Non-toxic”, the pIC50 [2] was under 5.10 and the inhibition [3] was “inactive”. The inhibition [4] was “inactive” and the inhibition [5] was “inactive”.

CN1C(=O)c2nc3ccccc3c(=O)n2C(Cc2ccccc2OCc2ccc(Cl)cc2)C1=O (racemic) was tested, and the Activity [6] was “Non-toxic” and the Activity [7] was “Active”.

For C=CCOc1ccccc1C[C@@H]1C(=O)N(C)C(=O)c2nc3ccccc3c(=O)n21, the Activity [1] was “Non-toxic”, the pIC50 [2] was 5.77 and the inhibition [3] was “inactive”. For the same molecule, the inhibition at 2 µM [4] was 36.5% and the inhibition at 2 µM [5] was 42.9%.

With C=CCOc1ccccc1CC1C(=O)N(C)C(=O)c2nc3ccccc3c(=O)n21 (racemic) the Activity [8] was “Toxic”, the Activity [6] was “Non-toxic” and the Activity [7] was “Active; Strong Ability Of No Inhibition Observed”.

CN1C(=O)c2nc3ccccc3c(=O)n2C(Cc2ccccc2OCC#N)C1=O (racemic) was tested, and the Activity [8] was “Non-toxic”, the Activity [6] was “Non-toxic” and the Activity [7] was “Active; Strong Ability Of No Inhibition Observed”.

For CNC(=N)NCCC[C@H](N)C(=O)O [TILARGININE], the pIC50 [2] was 4.70, the inhibition at 20 µM [9] was 19.4% and the inhibition at 20 µM [10] was 27.6%. For the same molecule, the inhibition at 20 µM [11] was 61.9%.

O=C1NC(=O)C(Cc2ccccc2O)n2c1nc1ccccc1c2=O (racemic) was tested, and the Activity [6] was “Non-toxic”, the inhibition [3] was “inactive” and the inhibition at 2 µM [4] was 28.8%. It also gave an inhibition at 2 µM [5] of 33.3%.

In the case of COCC(=O)Oc1ccccc1CC1C(=O)N(C)C(=O)c2nc3ccccc3c(=O)n21 (racemic), the Activity [6] was “Non-toxic”.

In the case of O=C1c2nc3ccccc3c(=O)n2C(Cc2ccccc2O)C(=O)N1Cc1cccc(C(F)(F)F)c1 (racemic), the Activity [6] was “Non-toxic”.

In the case of CN1C(=O)c2nc3ccccc3c(=O)n2[C@@H](Cc2ccccc2OCC#N)C1=O, the Activity [1] was “Non-toxic”, the pIC50 [2] was 5.79 and the inhibition [3] was “inactive”. For the same molecule, the inhibition at 2 µM [4] was 31.6% and the inhibition at 2 µM [5] was 48.8%.

O=C1c2nc3ccccc3c(=O)n2C(Cc2ccccc2O)C(=O)N1Cc1ccccc1Cl (racemic) was tested, and the Activity [8] was “Non-toxic”, the Activity [6] was “Non-toxic” and the Activity [7] was “Active; Strong Ability Of No Inhibition Observed”.

In the case of COCOc1ccccc1CC1C(=O)N(Cc2cccc(C(F)(F)F)c2)C(=O)c2nc3ccccc3c(=O)n21 (racemic), the Activity [8] was “Toxic” and the Activity [6] was “Non-toxic”.

With O=C1c2nc3ccccc3c(=O)n2[C@H](Cc2ccccc2O)C(=O)N1Cc1ccccc1Cl the Activity [1] was “Non-toxic”, the pIC50 [2] was 5.92 and the inhibition [3] was “inactive”. It also gave an inhibition at 2 µM [4] of 28.8% and an inhibition at 2 µM [5] of 35.7%.

With O=C1c2nc3ccccc3c(=O)n2[C@@H](Cc2ccccc2O)C(=O)N1Cc1cccc(F)c1 the Activity [1] was “Non-toxic”, the pIC50 [2] was 5.51 and the inhibition [3] was “inactive”. The inhibition at 2 µM [4] was 21.3% and the inhibition at 2 µM [5] was 60.7%.

Cc1cccc(CN2C(=O)c3nc4ccccc4c(=O)n3C(Cc3ccccc3O)C2=O)c1 (racemic) was tested, and the Activity [6] was “Non-toxic” and the Activity [7] was “Active”.

For COCOc1ccccc1CC1C(=O)N(Cc2cccc(C)c2)C(=O)c2nc3ccccc3c(=O)n21 (racemic), the Activity [6] was “Non-toxic”.

In the case of CN1C(=O)c2nc3ccccc3c(=O)n2C(Cc2ccccc2OC(=O)c2cccs2)C1=O (racemic), the Activity [6] was “Non-toxic”.

With CN1C(=O)C(Cc2ccccc2O)n2c(nc3ccccc3c2=O)C1(O)c1ccccc1 (racemic) the Activity [8] was “Non-toxic” and the Activity [6] was “Non-toxic”.

CN1C(=O)c2nc3ccccc3c(=O)n2C(Cc2ccccc2OC(=O)COCc2ccccc2)C1=O (racemic) was tested, and the Activity [6] was “Non-toxic”.

For O=C1c2nc3ccccc3c(=O)n2[C@H](Cc2ccccc2O)C(=O)N1Cc1cccc(F)c1, the Activity [1] was “Non-toxic”, the pIC50 [2] was 5.65 and the inhibition [3] was “inactive”. It also gave an inhibition at 2 µM [4] of 22.9% and an inhibition at 2 µM [5] of 44%.

In the case of COc1ccccc1CC1C(=O)N(Cc2cccc(C)c2)C(=O)c2nc3ccccc3c(=O)n21 (racemic), the Activity [6] was “Non-toxic”.

CN1C(=O)c2nc3ccccc3c(=O)n2C(Cc2ccccc2O)C1=O (racemic) was tested, and the Activity [6] was “Non-toxic”.

In the case of CN1C(=O)c2nc3ccccc3c(=O)n2C(Cc2ccccc2OCc2ccccc2Cl)C1=O (racemic), the Activity [6] was “Non-toxic” and the Activity [7] was “Active; Strong Ability Of No Inhibition Observed”.

With O=C1c2nc3ccccc3c(=O)n2C(Cc2ccccc2O)C(=O)N1Cc1cccc(F)c1 (racemic) the Activity [6] was “Non-toxic” and the Activity [7] was “Active; Strong Ability Of No Inhibition Observed”.

In the case of O=C1c2nc3ccccc3c(=O)n2[C@@H](Cc2ccccc2O)C(=O)N1Cc1ccccc1Cl, the Activity [1] was “Non-toxic”, the pIC50 [2] was 5.75 and the inhibition [3] was “inactive”. The inhibition at 2 µM [4] was 19.3% and the inhibition [5] was “inactive”.

For Cc1ccc(COc2ccccc2CC2C(=O)N(C)C(=O)c3nc4ccccc4c(=O)n32)cc1 (racemic), the Activity [6] was “Non-toxic”.

O=C1c2nc3ccccc3c(=O)n2C(Cc2ccccc2O)C(=O)N1Cc1cccc(Br)c1 (racemic) was tested, and the Activity [6] was “Non-toxic” and the Activity [7] was “Active; Strong Ability Of No Inhibition Observed”.

For Cc1ccc(CN2C(=O)c3nc4ccccc4c(=O)n3C(Cc3ccccc3O)C2=O)cc1 (racemic), the Activity [8] was “Non-toxic” and the Activity [6] was “Non-toxic”.

With COc1ccccc1CC1C(=O)N(Cc2cccc(F)c2)C(=O)c2nc3ccccc3c(=O)n21 (racemic) the Activity [6] was “Non-toxic”.

For CN1C(=O)c2nc3ccccc3c(=O)n2[C@H](Cc2ccccc2OCC#N)C1=O, the Activity [1] was “Non-toxic”, the pIC50 [2] was under 5.10 and the inhibition [3] was “inactive”. It also gave an inhibition at 2 µM [4] of 31.9% and an inhibition at 2 µM [5] of 63.1%.

For CN1C(=O)c2nc3ccccc3c(=O)n2[C@@H](Cc2ccccc2OCc2ccccc2Cl)C1=O, the Activity [1] was “Non-toxic”, the pIC50 [2] was 5.82 and the inhibition [3] was “inactive”. It also gave an inhibition at 2 µM [4] of 21.4% and an inhibition at 2 µM [5] of 82.1%.

CN1C(=O)c2nc3ccccc3c(=O)n2C(Cc2ccccc2OCc2cccc(C(F)(F)F)c2)C1=O (racemic) was tested, and the Activity [6] was “Non-toxic”.

With COc1ccccc1CC1C(=O)N(C)C(=O)c2nc3ccccc3c(=O)n21 (racemic) the Activity [6] was “Non-toxic”.

COc1ccc(C2(O)c3nc4ccccc4c(=O)n3C(Cc3ccccc3O)C(=O)N2C)cc1 (racemic) was tested, and the Activity [6] was “Non-toxic”.

With O=C1c2nc3ccccc3c(=O)n2[C@@H](Cc2ccccc2O)C(=O)N1Cc1cccc(Br)c1 the Activity [1] was “Non-toxic”, the pIC50 [2] was under 5.10 and the inhibition [3] was “inactive”. The inhibition [4] was “inactive” and the inhibition [5] was “inactive”.

In the case of CC(=O)Oc1ccccc1CC1C(=O)N(C)C(=O)c2nc3ccccc3c(=O)n21 (racemic), the Activity [6] was “Non-toxic”.

With O=C1c2nc3ccccc3c(=O)n2[C@H](Cc2ccccc2O)C(=O)N1Cc1cccc(Br)c1 the Activity [1] was “Non-toxic”, the pIC50 [2] was 5.86 and the inhibition [3] was “inactive”. The inhibition at 2 µM [4] was 19.2% and the inhibition at 2 µM [5] was 45.2%.

With CCOC(=O)COc1ccccc1CC1C(=O)N(C)C(=O)c2nc3ccccc3c(=O)n21 (racemic) the Activity [6] was “Non-toxic”.

In the case of CN1C(=O)c2nc3ccccc3c(=O)n2C(Cc2ccccc2OC(=O)c2ccco2)C1=O (racemic), the Activity [6] was “Non-toxic”.

O=C1c2nc3ccccc3c(=O)n2C(Cc2ccccc2O)C(=O)N1Cc1ccc(Cl)cc1 (racemic) was tested, and the Activity [8] was “Non-toxic” and the Activity [6] was “Non-toxic”.

COCOc1ccccc1CC1C(=O)NC(=O)c2nc3ccccc3c(=O)n21 (racemic) was tested, and the Activity [6] was “Non-toxic”.
